Measurements from publication PMC6368574, “Probing the Inhibition of Microtubule Affinity Regulating Kinase 4 by N-Substituted Acridones” (Scientific Reports, 2019).
Entries after “also recorded” stand apart in the source; their conditions may differ. Where two headings read alike, the source gives them in different places.

Legend:
[1] = test system: MCF-7 cells; experiment: MTT cell viability assay, MCF-7; format: cell-based; conditions: Homo sapiens, MCF7
Procedure: Initially, all synthesized acridone derivatives were evaluated for their cytotoxicity potential on MCF-7, HepG2 and HEK293 cell lines by MTT assay. These synthesized acridone derivatives were screened in the concentration range of 0–200 µM, for 24 and 48 h. […] It was also interesting that in the studied […] concentration range these compounds don’t show considerable cytotoxicity towards HEK293 cell lines. […] Thus, compounds 5, 7b, 7d, 7f and 7h were taken for further cell based studies such as apoptosis and reactive oxygen species (ROS) production.
To study the effect of synthesized acridone derivatives on cell viability and proliferation, a standard MTT method was carried out. Cells were plated (8000–9000/well) in a 96-well plate and incubated overnight. On the next day, cells were treated with increasing concentrations (0.1–80 μM) of synthesized acridone derivatives in a final volume of 200 µl for 48 h at 37 °C in a humidified chamber. At the end of treatment time point, 20 µl of MTT solution (from 5 mg/ml stock solution in phosphate buffer saline, pH 7.4) was added to each well and incubated further for 4–5 h at 37 °C in the CO2 incubator. After stipulated time the supernatant was aspirated and the colored formazan crystal produced as a result of MTT reduction was dissolved in 100 µl of DMSO. The absorbance (A) of colored product was then measured at 570 nm on a multiplate ELISA reader (BioRad). The percentage of viable cells was calculated and used to estimate the IC50 (50% inhibitory concentration) values for each acridone derivative. For cell proliferation studies paclitaxel has been taken as positive control.

[2] = test system: panel of kinases of CAMK family; experiment: Single dose kinase inhibition profiling (ADP-Glo); format: biochemical; conditions: single dose of 10 µM
From the text: The selectivity of kinase inhibitors is commonly evaluating them against a panel of closely related kinases based on the hypothesis that off-target interfaces are more likely to be associated with same/different families of kinases with similar amino acid sequence. So, we evaluated the fraction of kinase targets that are within the same kinase family (CAMK family). […] These kinase selectivity results signify the use of these compounds as potential and selective inhibitors towards MARK4.
Figure 7 Kinase selectivity and tau-phosphorylation assay. Kinase selectivity results of (A) compound 7b, (B) compound 7d, (C) compound 7f. The selected panel of kinases was incubated with 10 µM dose of selected compounds and analyzed for percent activity values. The percent kinase activity was calculated in the compound-containing reactions and plotted in terms of percent kinase activity inhibition. (D) Representative flow cytometry histogram of SH-SY5Y cell fractions stained with phosphorylated anti-tau antibodies, each histogram represents the phosphorylation status of tau under different treatments as mentioned in inset.
In vitro profiling of the twenty five members of CAMK family (CAMK-1 and CAMK-2) of kinases was performed with the help of kinase screening kit by following the manufacturer’s protocols (Promega, Madison, USA). Briefly, add desired concentration of each compound (10 µM) to corresponding well of 384-well assay plate. Consecutively, 2 µl of kinase working stock solution was added to each wells of assay plate. Gently mix the reaction mixture on a plate shaker for 2 minutes, centrifuge the assay plate to bring mixture of reagents to the bottom of the wells. Incubate the plate at room temperature (25 °C) for 10 minutes. […] After the completion of reaction, measure the luminescence using an integration time of 0.5 seconds per well. Using net luminescence of the no-compound control (negative control) reactions to represent 100% kinase activity, the percent kinase activity was calculated in the compound-containing reactions and plotted in terms of percent kinase activity inhibition.

[3] = test system: MCF-7 cells; experiment: ROS measurement by DCFDA staining; format: cell-based, human; conditions: IC50 dose, 5–6 h, flow cytometry
Procedure: The respiratory cycle of mitochondria is the foremost source of reactive oxygen species (ROS), and ROS has the potential to induce cell apoptosis. Thus, it was speculated that the treatment with selected acridone derivatives might lead to the production of ROS. The MCF-7 cells were treated with the IC50 dose of compounds 5, 7b, 7d, 7f and 7h for 5–6 h and ROS levels were quantified by flow cytometry using 2-dichlorofluorescein diacetate (DCFDA) staining.
Besides flow cytometry, levels of ROS were also measured by fluorescence spectroscopy, after treatment with compounds 5, 7b, 7d, 7f and 7h, DCFDA staining and imaging on a fluorescence microscope (Fig. 6D). It is easily observed in the Fig. 6D that the intensifications of green fluorescence in case of treated cells denote the higher levels of ROS.
DCF fluorescence helps to measures innumerable ROS such as H2O2 and hydroxyl radicals. That why DCFDA staining was used to quantify the reactive oxygen species (ROS) level inside the cell as described earlier[17],[41]. Briefly, the MCF-7 cells (70–80% confluent) were incubated with IC50 concentration of each compound and positive control H2O2, respectively in a 24-well culture plates. After 5–6 h incubation of cells with respective compounds, cells were gently washed with 500 μl of prewarmed (at 37 °C) Krebs Ringer buffer (20 mM HEPES, 2 mM MgSO4, 10 mM dextrose, 127 mM NaCl, 1 mM CaCl2 and 5.5 mM KCl), subsequently 10 µM DCFDA (Invitrogen Grand Island, NY) has been added to each well and incubated further for 30 min in dark at 37 °C in a humidified CO2 incubator. After 30 min incubation, the cells were collected by trypsinization and ROS levels were quantified with the help of Flow Cytometry. Nearly 10,000 events for each sample were collected on BD LSR II Flow Cytometry Analyzer, and analyzed with help of FlowJo. For intact cell imaging, cells were washed with PBS, pH 7.4 and imaged for ROS levels estimation using the DCFDA fluorescent dye. Fluorescence images were taken on Nikon-EclipseTS100 microscope.

[4] = test system: phosphorylation of tau protein in SH-SY5Y cells; experiment: Tau-phosphorylation assay by flow cytometry; format: cell-based, human; conditions: IC50 dose, 24 h
From the text: To see the effect of most potential lead molecules (compound 7b, 7d and 7f) on the substrate protein (tau protein) of MARK4 enzyme inhibition activity studies are extended to a cell-based tau-phosphorylation assay. Cells were allowed to grow in the presence of IC50 dose of compound 7b, 7d and 7f for 24 hrs. Following the treatment, the phosphorylation of tau has been assessed with the help of flow cytometry.
To study the effect of selected lead molecules on the phosphorylation of tau protein (a substrate of MARK4) the SH-SY5Y cells were treated with IC50 dose of compound 7b, 7d and 7 f for 24 h and subjected to FACS based analysis as per our previously published protocols[17],[50].

[5] = Table 1, from MTT, read-out: IC50, (µM), MCF-7
[6] = MTT, read-out: IC50 for MCF-7 cells

Row | IC50 [1, 5] [µM] | IC50 [1, 6] [µM] | SMILES | within-family kinase selectivity [2] | ROS levels [3] | phosphorylation level of tau protein [4]
1 | 5.8 ± 1.4 |  | Cc1ccc(NC(=O)Cn2c3ccccc3c(=O)c3cc(C)ccc32)cc1 [Compound 7f, 2-(2-Methyl-9-oxoacridin-10(9H)-yl)-N-(p-tolyl)acetamide] | more strongly inhibits MARK4 as compared to other kinases of same family | increases the production of ROS; also recorded: induce ROS to a higher extent than compound 5 and 7h | decreases the phosphorylation level of tau protein
2 | 6.3 ± 1.2 |  | COc1ccc(CNC(=O)Cn2c3ccccc3c(=O)c3cc(C)ccc32)cc1 [Compound 7d, N-(4-methoxybenzyl)-2-(2-methyl-9-oxoacridin-10(9H)-yl)acetamide] | more strongly inhibits MARK4 as compared to other kinases of same family | increases the production of ROS; also recorded: induce ROS to a higher extent than compound 5 and 7h | decreases the phosphorylation level of tau protein
3 |  | 7.2 ± 1.33 | COc1ccccc1NC(=O)Cn1c2ccccc2c(=O)c2cc(C)ccc21 [Compound 7h, N-(2-methoxyphenyl)-2-(2-methyl-9-oxoacridin-10(9H)-yl)acetamide] |  | increases the production of ROS | 

The next lines start with the molecule.

Row | SMILES | IC50 [1, 5] [µM] | IC50 [1, 6] [µM] | within-family kinase selectivity [2] | ROS levels [3] | phosphorylation level of tau protein [4]
4 | Cc1ccc2c(c1)c(=O)c1ccccc1n2CC(=O)NCc1ccccc1 [Compound 7b, N-benzyl-2-(2-methyl-9-oxoacridin-10(9H)-yl)acetamide] | 5.2 ± 1.2 |  | more strongly inhibits MARK4 as compared to other kinases of same family | increases the production of ROS; also recorded: induce ROS to a higher extent than compound 5 and 7h | decreases the phosphorylation level of tau protein
5 | COC(=O)Cn1c2ccccc2c(=O)c2cc(C)ccc21 [Compound 5, Methyl 2-(2-methyl-9-oxoacridin-10(9H)-yl)acetate] |  | 9.4 ± 1 |  | increases the production of ROS | 
